In US8076369B2, “N-alkyl-hydroxamic acid-isoindolyl compounds and their pharmaceutical uses” (Celgene Corporation, priority 2003, dated 2011):

melting point [°C]	SMILES
102 to 104	CCOc1cc([C@@H](CCN(O)C=O)N2Cc3cccc(NC(=O)C4CC4)c3C2=O)ccc1OC [Example 7, (1R)-Cyclopropanecarboxylic acid {2-[1-(3-ethoxy-4-methoxy-phenyl)-3-(N-formyl-N-hydroxy-amino)-propyl]-3-oxo-2,3-dihydro-1H-Isoindol-4-yl}-amide]
79 to 81	CCOc1cc([C@@H](CCN(O)C=O)N2Cc3cccc(NC(C)=O)c3C2=O)ccc1OC [Example 8, (1R)—N-{2-[1-(3-Ethoxy-4-methoxy-phenyl)-3-(N-formyl-N-hydroxy-amino)-propyl]-3-oxo-2,3-dihydro-1H-Isoindol-4-yl}-acetamide]
81 to 83	CCOc1cc([C@@H](CCN(O)C=O)N2Cc3cccc(NC(=O)C(C)C)c3C2=O)ccc1OC [Example 9, (1R)—N-{2-[1-(3-Ethoxy-4-methoxy-phenyl)-3-(N-formyl-N-hydroxy-amino)-propyl]-3-oxo-2,3-dihydro-1H-Isoindol-4-yl}-Isobutyramide]
96 to 98	CCOc1cc([C@@H](CCN(O)C=O)N2C(=O)c3cccc(NC(C)=O)c3C2=O)ccc1OC [Example 10, (1R)—N-{2-[1-(3-Ethoxy-4-methoxy-phenyl)-3-(N-formyl-N-hydroxy-amino)-propyl]-1,3-dioxo-2,3-dihydro-1H-Isoindol-4-yl}-acetamide]
137 to 139	CCOc1cc([C@@H](CCN(O)C(N)=O)N2Cc3cccc(NC(=O)C(C)C)c3C2=O)ccc1OC [Example 12, (1R)—N-{2-[3-(N-Aminocarbonyl-N-hydroxy-amino)-1-(3-ethoxy-4-methoxy-phenyl)-propyl]-3-oxo-2,3-dihydro-1H-Isoindol-4-yl}-Isobutyramide]
123 to 125	CCOc1cc(C(CCN(OC(C)=O)C(C)=O)N2Cc3cccc(NC(=O)C4CC4)c3C2=O)ccc1OC (stereo not drawn) [Example 14]
142 to 144	CCOc1cc([C@@H](CC(C)N(O)C=O)N2Cc3cccc(NC(=O)C4CC4)c3C2=O)ccc1OC (stereo partly drawn) [Example 15, (1R)-Cyclopropanecarboxylic acid {2-[1-(3-ethoxy-4-methoxy-phenyl)-3-(formyl-hydroxy-amino)-butyl]-3-oxo-2,3-dihydro-1H-Isoindol-4-yl}-amide]

More lines, now with the values behind:

SMILES	melting point [°C]
CCOc1cc([C@@H](CCO)N2Cc3cccc(NC(=O)C4CC4)c3C2=O)ccc1OC [Example 1, (1R)-Cyclopropanecarboxylic acid {2-[1-(3-ethoxy-4-methoxy-phenyl)-3-hydroxy-propyl]-3-oxo-2,3-dihydro-1H-Isoindol-4-yl}-amide]	103 to 105
CCOc1cc(C(CCN(OC(=O)OC(C)(C)C)C(=O)OC(C)(C)C)N2Cc3cccc(NC(=O)C4CC4)c3C2=O)ccc1OC [Example 4, (3R)-(tert-Butoxy)-N-{3-[7-(cyclopropylcarbonylamino)-1-oxoisoindolin-2-yl]-3-(3-ethoxy-4-methoxyphenyl)propyl}carbonylamino(tert-butoxy)formate]	153 to 155
CCOc1cc(C(CCN(OC(=O)OC(C)(C)C)C(=O)OC(C)(C)C)N2Cc3cccc(N)c3C2=O)ccc1OC (stereo not drawn) [Example 5, N-[3-(7-Amino-1-oxoisoindolin-2-yl)-3-(3-ethoxy-4-methoxyphenyl)propyl](tert-butoxy)carbonylamino (tert-butoxy)formate]	85 to 87
CCOc1cc([C@@H](CCNO)N2Cc3cccc(NC(=O)C4CC4)c3C2=O)ccc1OC [Example 6, (3R)-Cyclopropanecarboxylic acid {2-[1-(3-ethoxy-4-methoxy-phenyl)-3-hydroxyamino-propyl]-3-oxo-2,3-dihydro-1H-Isoindol-4-yl}-amide]	136 to 138
CCOc1cc([C@@H](CCN(C=O)OC(C)=O)N2Cc3cccc(NC(=O)C(C)C)c3C2=O)ccc1OC [Example 11, (1R)—N-{2-[3-(N-Acetoxy-N-formyl-amino)-1-(3-ethoxy-4-methoxy-phenyl)-propyl]-3-oxo-2,3-dihydro-1H-Isoindol-4-yl}-Isobutyramide]	72 to 74
